The target of experiment [1] is Adrenergic receptor alpha-2 (Homo sapiens) (UniProt P08913+P18825+P18089). In words: In vitro alpha 2 adrenergic activity uin phenozybenzamine pretreated dog saphenous vein expressed as percent maximum response of the tissue to norepinephrine. In kind it is functional, tissue-based. The conditions noted are these: Canis lupus familiaris.
Experiment [2] concerns the target T1, Adrenergic receptor alpha-2 (Homo sapiens, UniProt P08913+P18825+P18089).
T1 sequence (P08913 whole entry): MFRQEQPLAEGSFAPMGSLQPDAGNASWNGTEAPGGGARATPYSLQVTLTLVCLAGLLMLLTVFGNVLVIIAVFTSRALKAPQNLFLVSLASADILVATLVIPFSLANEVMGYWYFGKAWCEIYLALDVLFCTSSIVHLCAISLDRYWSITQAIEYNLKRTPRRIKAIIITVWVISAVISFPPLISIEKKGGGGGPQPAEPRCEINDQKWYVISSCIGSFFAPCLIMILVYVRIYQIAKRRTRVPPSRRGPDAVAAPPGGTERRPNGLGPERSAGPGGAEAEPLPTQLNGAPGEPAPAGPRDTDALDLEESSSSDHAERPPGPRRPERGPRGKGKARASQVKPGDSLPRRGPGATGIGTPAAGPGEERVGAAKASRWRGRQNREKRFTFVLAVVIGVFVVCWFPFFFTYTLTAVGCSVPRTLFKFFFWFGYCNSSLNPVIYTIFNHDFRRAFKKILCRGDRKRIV
T1 sequence (P18825 whole entry): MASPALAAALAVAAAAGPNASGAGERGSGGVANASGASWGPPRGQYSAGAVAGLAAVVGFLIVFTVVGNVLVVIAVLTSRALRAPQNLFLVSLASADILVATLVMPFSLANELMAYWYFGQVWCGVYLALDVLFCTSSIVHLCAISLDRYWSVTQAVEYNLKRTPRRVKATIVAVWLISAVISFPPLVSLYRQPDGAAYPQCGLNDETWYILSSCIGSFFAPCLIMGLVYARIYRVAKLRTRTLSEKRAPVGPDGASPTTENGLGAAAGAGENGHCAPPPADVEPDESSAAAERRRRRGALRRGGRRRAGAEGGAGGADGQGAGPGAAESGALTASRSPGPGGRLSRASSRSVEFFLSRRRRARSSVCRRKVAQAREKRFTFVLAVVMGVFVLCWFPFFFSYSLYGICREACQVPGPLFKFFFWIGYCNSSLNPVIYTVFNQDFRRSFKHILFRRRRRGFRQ
T1 sequence (P18089 whole entry): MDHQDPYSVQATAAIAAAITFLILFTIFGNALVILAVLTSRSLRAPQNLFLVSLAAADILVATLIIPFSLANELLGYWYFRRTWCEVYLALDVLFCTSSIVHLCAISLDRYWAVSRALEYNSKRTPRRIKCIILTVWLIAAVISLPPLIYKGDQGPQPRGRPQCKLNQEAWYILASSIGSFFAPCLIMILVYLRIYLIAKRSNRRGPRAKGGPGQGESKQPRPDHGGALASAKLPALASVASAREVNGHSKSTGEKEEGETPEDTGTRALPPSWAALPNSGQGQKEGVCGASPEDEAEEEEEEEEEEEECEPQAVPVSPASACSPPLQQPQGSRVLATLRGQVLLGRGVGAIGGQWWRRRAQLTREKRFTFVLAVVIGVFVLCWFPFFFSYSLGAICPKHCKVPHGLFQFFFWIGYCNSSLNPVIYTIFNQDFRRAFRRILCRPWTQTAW
In words: Binding affinity towards alpha 2 adrenergic receptor. In kind it is protein assay, Canis lupus familiaris.

Experiment [3] has as its target T2, Adrenergic receptor alpha-1 (Homo sapiens, UniProt P35348+P25100+P35368).
T2 sequence (P35348 whole entry): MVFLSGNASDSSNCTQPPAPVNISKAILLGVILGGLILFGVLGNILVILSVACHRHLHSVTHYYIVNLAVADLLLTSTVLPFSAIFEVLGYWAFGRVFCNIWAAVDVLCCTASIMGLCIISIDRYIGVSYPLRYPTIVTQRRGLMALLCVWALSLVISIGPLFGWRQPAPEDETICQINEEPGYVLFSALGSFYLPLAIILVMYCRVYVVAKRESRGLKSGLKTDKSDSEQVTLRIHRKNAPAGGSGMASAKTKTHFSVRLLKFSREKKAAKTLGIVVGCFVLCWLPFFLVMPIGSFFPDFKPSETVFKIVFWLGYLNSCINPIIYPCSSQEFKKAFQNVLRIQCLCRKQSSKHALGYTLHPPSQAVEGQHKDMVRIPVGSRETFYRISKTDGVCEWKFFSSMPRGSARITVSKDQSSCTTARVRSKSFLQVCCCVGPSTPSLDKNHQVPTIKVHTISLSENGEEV
T2 sequence (P25100 whole entry): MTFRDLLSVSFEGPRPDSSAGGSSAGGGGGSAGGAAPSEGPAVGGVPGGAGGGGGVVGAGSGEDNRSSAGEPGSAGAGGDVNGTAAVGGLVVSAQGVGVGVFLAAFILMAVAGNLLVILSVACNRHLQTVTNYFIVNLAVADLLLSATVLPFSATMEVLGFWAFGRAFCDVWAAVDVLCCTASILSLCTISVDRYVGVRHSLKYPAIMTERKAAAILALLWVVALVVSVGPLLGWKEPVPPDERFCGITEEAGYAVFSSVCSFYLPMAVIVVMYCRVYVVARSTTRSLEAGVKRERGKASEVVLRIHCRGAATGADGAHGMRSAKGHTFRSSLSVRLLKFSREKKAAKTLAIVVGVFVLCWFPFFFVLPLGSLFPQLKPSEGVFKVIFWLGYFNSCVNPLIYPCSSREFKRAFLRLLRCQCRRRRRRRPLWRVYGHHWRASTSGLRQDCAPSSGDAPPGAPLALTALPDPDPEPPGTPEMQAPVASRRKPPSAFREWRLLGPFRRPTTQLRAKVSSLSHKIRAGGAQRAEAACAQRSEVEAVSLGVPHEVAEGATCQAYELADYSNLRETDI
T2 sequence (P35368 whole entry): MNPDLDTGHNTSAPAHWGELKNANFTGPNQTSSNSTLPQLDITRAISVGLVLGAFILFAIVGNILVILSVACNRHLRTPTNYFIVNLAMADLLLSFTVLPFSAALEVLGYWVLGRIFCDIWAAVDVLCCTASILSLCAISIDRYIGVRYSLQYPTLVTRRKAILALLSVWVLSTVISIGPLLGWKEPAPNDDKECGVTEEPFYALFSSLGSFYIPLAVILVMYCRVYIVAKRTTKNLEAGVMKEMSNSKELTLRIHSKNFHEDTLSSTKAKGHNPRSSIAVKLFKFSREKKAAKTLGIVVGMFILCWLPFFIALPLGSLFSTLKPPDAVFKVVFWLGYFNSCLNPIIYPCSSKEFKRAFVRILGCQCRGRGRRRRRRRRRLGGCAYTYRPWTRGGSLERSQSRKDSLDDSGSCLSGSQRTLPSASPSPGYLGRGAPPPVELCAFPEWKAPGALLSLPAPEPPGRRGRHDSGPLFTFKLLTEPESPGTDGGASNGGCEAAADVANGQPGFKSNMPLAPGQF
The experiment can be described thus: Binding affinity towards alpha 1 adrenergic receptor. In kind it is protein assay, Oryctolagus cuniculus.

Experiment [4] deals with Adrenergic receptor alpha-1 (Homo sapiens) (UniProt P35348+P25100+P35368). The experiment can be described thus: In vitro alpha 1 adrenergic activity using isolated rabbit aorta expressed as percent maximum response of the tissue to norepinephrine. In kind it is functional, tissue-based. As to conditions: Oryctolagus cuniculus.
The target in experiment [5] is T3, Adrenergic receptor alpha (Homo sapiens) (UniProt P35348+P08913+P18825+P25100+P35368+P18089). The experiment can be described thus: In vitro alpha-2 selectivity which is the measure of Ratio of Ki of alpha-1 adrenoceptor to Ki of alpha-2 adrenoceptor. It is filed as protein assay.
Experiment [6] concerns the target T3, Adrenergic receptor alpha (Homo sapiens). In words: Ratio of Ki of alpha-1 to Ki of alpha-2 adrenoceptor. In kind it is protein assay.
Experiment [7] in a line: Ratio of ED50 of NE to ED50 of CPD from PBZ-pretreated dog alpha-2 adrenoceptor.
Experiment [8] is described as follows: Ratio of ED50 of NE to ED50 of CPD from Rabbit aorta alpha-1 adrenoceptor. In kind it is tissue-based.

As to `NCC1OCc2c1ccc(O)c2O` (stereo not given), the Emax was 90 in experiment [1] and 107 in experiment [4]. In addition, the Ki was 0.077 µM in experiment [2] and 9.8 µM in experiment [3]. Moreover, the Ratio in experiment [5] worked out at 36.3; in experiment [6], 127; in experiment [7] it was 1.45; in experiment [8] it was 0.04.

With `CCCN(CCC)CC1CCc2c1ccc(O)c2O` (stereo not given), the Ki in experiment [2] was determined as 0.47 µM; in experiment [3], 7.4 µM. Besides, the Ratio in experiment [6] was 16.

`NCC1CCc2cc(O)c(O)cc21` (stereo not given): the Ki in experiment [2] was determined as 0.52 µM; in experiment [3], 26 µM. For the same molecule, the Ratio in experiment [6] stood at 50.

Consider `NCC1OCc2cc(O)c(O)cc21` (stereo not given), for which the Ki in experiment [2] turned out to be 13 µM; in experiment [3] it was 99 µM. The Ratio in experiment [6] was found to be 9.7.

For `CNCC1CCc2c1ccc(O)c2O` (stereo not given), the Emax in experiment [1] came out at 81; in experiment [4], 109. Besides, the results for the Ki in experiment [2] and in experiment [3] were 0.007 µM and 2 µM, respectively. Besides, the Ratio was found to be 110 in experiment [5], 323 in experiment [6], 29.6 in experiment [7] and 0.27 in experiment [8].

As to `NCC1CCc2c1ccc(O)c2O` (stereo not given), the Emax in experiment [1] was found to be 91; in experiment [4] it was 102. Besides, the Ki is 0.015 µM in experiment [2] and 2.25 µM in experiment [3]. Further, the Ratio in experiment [5] stood at 209; in experiment [6], 145; in experiment [7], 3.55; in experiment [8], 0.017.

As to `CN(C)CC1OCc2c1ccc(O)c2O` (stereo not given), the Emax in experiment [1] was determined as 107; in experiment [4], 114. In addition, the Ki was 0.0107 µM in experiment [2] and 1.16 µM in experiment [3]. Moreover, the Ratio stood at 4 in experiment [5], 109 in experiment [6], 4 in experiment [7] and 1 in experiment [8].

As for `CNCC1OCc2c1ccc(O)c2O` (stereo not given), the Emax in experiment [1] stood at 94; in experiment [4], 126. The Ki in experiment [2] was 0.018 µM; in experiment [3], 1.97 µM. Also, the Ratio in experiment [5] was found to be 5.3; in experiment [6] it was 112; in experiment [7], 1.69; in experiment [8], 0.32.

`CN(C)CC1CCc2c1ccc(O)c2O` (stereo not given): the values for the Emax in experiment [1] and in experiment [4] were 101 and 105, respectively. Further, the inhibition constant (Ki) is 0.025 µM in experiment [2] and 6.9 µM in experiment [3]. Moreover, the Ratio worked out at 7.6 in experiment [5], 276 in experiment [6], 2.05 in experiment [7] and 0.27 in experiment [8].

With `CCCN(CCC)CC1OCc2c1ccc(O)c2O` (stereo not given), the Ki in experiment [2] worked out at 0.67 µM; in experiment [3] it was 10.3 µM. In experiment [6], the Ratio is 15.

As usually defined, the Ki is the dissociation constant of the complex between target and ligand, obtained from inhibition or displacement. The low end stands for tighter binding, the high end for weaker binding.

The record behind these values is ChEMBL document CHEMBL1123666, “Conformationally defined adrenergic agents. 4. 1-(aminomethyl)phthalans: synthesis and pharmacological consequences of the phthalan ring oxygen atom” (J Med Chem, 1987).
